Values quoted from earlier work as cited in publication PMC10572743 (International Journal of Molecular Sciences, 2023).

System: TNF-α production in PBMC stimulated with LPS
Conditions: previous research; read-out: PMBC-LPS/TNFα; cited from earlier work

Row | Structure (SMILES) | IC50 [µM]
1 | C=CCn1nnc2ccc3sccc3c21 [A] | 27.7
2 | COc1ccc2ccc3nnn(CCCCO)c3c2c1 [B] | 7.9
